# Patent US20080051454A1, “Compositions and methods for transient receptor potential vanilloid (TRPV) channel mediated treatments” (The Board of Trustees Operating Michigan State University, priority 2006, published 2008)
# Experiments:
# TRPV1−/− hearts = assay: Preconditioning (PC) protection against I/R in Langendorff hearts with receptor antagonists, TRPV1-null; set-up: species or system mouse; conditions: CAPZ 10^−7 M, CGRP8-37 10^−6 M, RP67580 10^−7 M
# Description: Male TRPV1 gene knockout (TRPV1-/-) strain B6.129S[…][…]^tm1Jul and matching control wild type (WT) strain C57BL/6J mice were used (Jackson Laboratory, Bar Harbor, Me.). Mice were heparinized (500 U/kg i.p.) and anesthetized with pentobarbital sodium (50 mg/kg i.p.). […] The distal end of the catheter was connected to a […] Performance Analyzer via a pressure transducer. Coronary flow (CF) was continuously measured using an ultrasonic flow probe placed in the aortic perfusion line. Hearts were paced at 400 bpm except during ischemic PC and sustained global ischemia to avoid inducing excessive ventricular tachyarrhythmia during reperfusion, and pacing was reinitiated 2 minutes after reperfusion. Left ventricular developed pressure (LVDP, peak systolic minuses LVEDP) and LV peak positive […]) during isovolumic contraction were used as indices of LV systolic function; LVEDP and the peak negative […] used as indices of LV diastolic function. […] Non-preconditioned hearts were time-matched perfused with the same duration as that of preconditioned hearts. Group 1: Controls. As normal controls (nonischemic), WT and TRPV1-/- hearts were perfused for 130 minutes. For I/R controls, WT and TRPV1-/- hearts were first perfused with Krebs-Henseleit buffer for 55 min (time-matched perfusion of the equilibration period plus the PC period), and subsequently subjected to 30 minutes of no-flow normothermic global ischemia followed by 40-minutes of reperfusion. Group 2: PC. […] The hearts were subjected to 30 minutes of no-flow normothermic global ischemia followed by 40-minutes of reperfusion as that of I/R control groups. Group 3: PC plus capsazepine (CAPZ). […] Two additional concentrations of CAPZ, 10^-6M and 10^-8 M, were used in WT hearts. An additional drug control was added. After a 20-minute equilibration period, WT hearts were perfused with CAPZ (10^-7 M) for 10 minutes without PC, followed by perfusion with Krebs-Henseleit buffer for 25 minutes (time-matched perfusion of the PC period) and then subjected to I/R. Group 4: […] […]
# WT hearts = assay: Lactate dehydrogenase (LDH) release during I/R; set-up: species or system mouse
# Description: Lactate dehydrogenase (LDH) release: In addition to the measurement of cardiac function, cardiac injury was assessed by measuring LDH release. Perfusion effluent was collected during the first 10 minutes to 20 minutes of I/R and stored at […] until analyzed. Total LDH levels were determined with the use of a CytoTox 96 assay (Promega). The data were expressed as absorbance units released per milliliter per minute per gram of heart wet tissues (Turnbull et al., Am J Physiol Heart Circ Physiol 290: […]-9, 2006; herein incorporated by reference).
# [1] = test system: Wistar rats fed a NS or HS diet for 3 weeks; assay: MAP and HR responses to bolus CAPZ in conscious rats (3-week diet); format: in vivo, rat; conditions: for peak increase in MAP: CAPZ 3 mg/kg bolus, conscious
# Source text: Animal Preparation: Experiments were approved by the institutional Animals Care and Use Committee. Male Wistar rats (6 weeks old, Charles River Laboratory, Wilmington, Mass.) were housed in a temperature-controlled room with a 12:12-hour light/dark cycle. Rats were selected randomly to receive either a normal-sodium diet (NS, 0.4% of Na^+ by weight) or a HS diet (HS, 4% of Na^+ by weight) for 3 weeks. The diets were purchased from Harlan Teklad. All rats drank water ad libitum throughout the experiment.
# Surgical Preparation The rats were anesthetized with ketamine and xylazine (80 and 4 mg/kg ip, respectively) for implantation of artery and vein catheters. The left jugular vein and carotid artery were cannulated for administration of drugs or for monitoring of mean arterial pressure (MAP) and heart rate (HR) with a Statham 231D pressure transducer coupled to a Gould 2400s recorder (Gould Instruments, Dayton, Ohio, USA). For conscious animal experiments, catheters were routed subcutaneously and exteriorized between the scapulae. Rats were quietly brought to home cages 3 hours after surgery, and MAP and HR were continuously recorded. Regular room light was turned on during experiments. The rats were allowed to acclimate to their surroundings for 15-30 minutes in their cages, i.e., until which time they ceased exploring the new environment and their blood pressures stabilized. Baseline MAP and HR were recorded for 15 minutes before administration of drugs (Supowit et al., 1997; Wang and Wang, 2004).
# Protocol 1: To determine whether the TRPV1 is tonically activated during HS intake, rats fed a NS or HS diet were randomly assigned to 2 groups for intravenous injection of CAPZ (3 mg/kg), a selective TRPV1 antagonist, in conscious states.
# [2] = test system: Wistar rats fed a NS or HS diet for 10 days; assay: MAP responses to i.v. capsaicin with or without CAPZ in urethane-anesthetized rats; format: in vivo, rat
# Description: Surgical Preparation Rats were anesthetized with ketamine and xylazine (80 and 4 mg/kg intraperitoneally, respectively) for cannulation or with urethane (1.5 g/kg intraperitoneally) for capsaicin administration. The left jugular vein, carotid and femoral artery were cannulated under anesthesia for injection of drugs or monitoring of mean arterial pressure (MAP) and heart rate (HR).
# Each dose of injection was separated by a 30-minute interval. To determine the specificity of capsaicin, CAPZ (3 mg/kg) was administered 10 minutes before capsaicin injection in a separate group.
smiles,measurement,setting,value
"Oc1cc2c(cc1O)CN(C(=S)NCCc1ccc(Cl)cc1)CCC2 [CAPZ, N-[2-(4-Chlorophenyl)ethyl]-1,3,4,5-tetrahydro-7,8-dihydroxy-2H-2-benzazepine-2-carbothioamide]",effect on these parameters in TRPV1−/− hearts,TRPV1−/− hearts,no effect
same,effect on PC protection assessed by LDH levels after I/R in WT hearts,WT hearts,abolished
same,peak increase in MAP,[1]; HS 3 weeks,13±3 mmHg
same,peak increase in MAP,[1]; NS 3 weeks,4±2 mmHg
same,duration of pressor action,"[1]; CAPZ 3 mg/kg, HS",6 to 7 min
same,time to peak MAP elevation after injection,"[1]; CAPZ 3 mg/kg, HS",≤ 2 min
same,change in HR,"[1]; CAPZ 3 mg/kg, NS or HS",no significant change
same,capsaicin-induced decrease in MAP after CAPZ,"[2]; CAPZ 3 mg/kg before capsaicin 10 μg/kg, HS",4±1 mmHg
same,capsaicin-induced decrease in MAP after CAPZ,"[2]; CAPZ 3 mg/kg before capsaicin 10 μg/kg, NS",4±1 mmHg
same,capsaicin-induced decrease in MAP after CAPZ,"[2]; CAPZ 3 mg/kg before capsaicin 30 μg/kg, HS",6±2 mmHg
same,capsaicin-induced decrease in MAP after CAPZ,"[2]; CAPZ 3 mg/kg before capsaicin 30 μg/kg, NS",5±1 mmHg
